Results taken from the supplement of paper PMC10307832.

Tests used:
Experiment in all cases: relative viability (nuclei count vs DMSO), 5 days (fraction); higher = more cells survive
Sunitinib + Navitoclax = compound: CCN(CC)CCNC(=O)c1c(C)[nH]c(/C=C2\C(=O)Nc3ccc(F)cc32)c1C [Sunitinib] + CC1(C)CCC(c2ccc(Cl)cc2)=C(CN2CCN(c3ccc(C(=O)NS(=O)(=O)c4ccc(N[C@H](CCN5CCOCC5)CSc5ccccc5)c(S(=O)(=O)C(F)(F)F)c4)cc3)CC2)C1 [Navitoclax] (partner 0.5 µM)
Method in brief: (§1)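 Lung cancer cell lines, seeded in 1536-well plates, were treated the following day by pin tool with a single drug or with five library-drug doses (not always all listed) in √10 steps on top of a fixed anchor-drug dose. Cells were fixed and nuclei stained in one step after 5 days, and nuclei were counted. Relative viability is the nuclei count for treated wells divided by that for vehicle wells, reported as medians of duplicate plates.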

Sunitinib + Crizotinib = compound: CCN(CC)CCNC(=O)c1c(C)[nH]c(/C=C2\C(=O)Nc3ccc(F)cc32)c1C [Sunitinib] + C[C@@H](Oc1cc(-c2cnn(C3CCNCC3)c2)cnc1N)c1c(Cl)ccc(F)c1Cl [Crizotinib] (partner 1 µM)
Method in brief: as §1

Sunitinib + Phenformin = compound: CCN(CC)CCNC(=O)c1c(C)[nH]c(/C=C2\C(=O)Nc3ccc(F)cc32)c1C [Sunitinib] + N=C(N)NC(=N)NCCc1ccccc1 [Phenformin] (partner 250 µM)
Method in brief: as §1

Sunitinib + Decitabine = compound: CCN(CC)CCNC(=O)c1c(C)[nH]c(/C=C2\C(=O)Nc3ccc(F)cc32)c1C [Sunitinib] + Nc1ncn([C@H]2C[C@H](O)[C@@H](CO)O2)c(=O)n1 [Decitabine] (partner 2 µM)
Method in brief: as §1

Cell Line	relative viability (Sunitinib + Navitoclax; first compound 0.02 µM)	relative viability (Sunitinib + Navitoclax; first compound 0.06325 µM)	relative viability (Sunitinib + Navitoclax; first compound 0.6325 µM)	relative viability (Sunitinib + Navitoclax; first compound 2 µM)	relative viability (Sunitinib + Crizotinib; first compound 0.02 µM)	relative viability (Sunitinib + Crizotinib; first compound 0.06325 µM)	relative viability (Sunitinib + Crizotinib; first compound 0.2 µM)	relative viability (Sunitinib + Crizotinib; first compound 0.6325 µM)	relative viability (Sunitinib + Crizotinib; first compound 2 µM)	relative viability (Sunitinib + Phenformin; first compound 0.02 µM)	relative viability (Sunitinib + Phenformin; first compound 0.06325 µM)	relative viability (Sunitinib + Phenformin; first compound 0.2 µM)	relative viability (Sunitinib + Phenformin; first compound 0.6325 µM)	relative viability (Sunitinib + Phenformin; first compound 2 µM)	relative viability (Sunitinib + Decitabine; first compound 0.02 µM)	relative viability (Sunitinib + Decitabine; first compound 0.06325 µM)	relative viability (Sunitinib + Decitabine; first compound 0.2 µM)	relative viability (Sunitinib + Decitabine; first compound 0.6325 µM)	relative viability (Sunitinib + Decitabine; first compound 2 µM)	relative viability (Sunitinib + Navitoclax; first compound 0.2 µM)
LU99A	0.807	0.765	0.882	0.788	0.517	0.524	0.605	0.764	0.674	0.727	0.906	1	0.803	0.782	0.792	0.836	1.02	0.995	0.734	
LXF-289	0.93	0.94	0.945	0.915	0.771	0.811	0.913	0.8		0.461	0.517	0.548	0.533	0.511	0.379	0.394	0.436	0.382	0.408	1
NCI-H23	0.806	0.879	1.07	0.66	0.478	0.477	0.854	0.548	0.527	0.753		0.93	0.878	0.763	0.293	0.351	0.328	0.307	0.329	0.899
NCI-H322M	1.25	1.18	1.25	1.34	0.845	0.891	0.951	0.891	1.08	0.736	0.857		0.855	0.7	0.664	0.72	0.654	0.798	0.696	1.3
NCI-H441		0.684	0.808	0.368	0.686	0.802	0.831	0.858		0.729	0.816	0.781	0.957	0.793	0.271	0.285	0.266	0.271	0.317	0.946
NCI-H460	0.862	1.19	1.41	1.08	0.874	0.945	1.2	1.17	0.638	0.48	0.567	0.54	0.535	0.487	0.457	0.54	0.566	0.527	0.563	1.37
NCI-H520		1.11	1.02	0.897	0.83	0.699	0.856	0.63	0.601	0.674	0.685	0.471	0.661	0.424	0.487	0.499	0.55	0.577	0.537	1.21
NCI-H596	0.987	0.802	0.945	0.956	0.935	0.957	1.01		0.81	0.641	0.816	0.829	0.792	0.723	0.895	0.902	1.16	1.01	0.962	1.14
NCI-H647	0.988	1.18	1.24	1.22	0.988	0.998	1.19	1.15	0.941	0.489	0.72	0.542	0.55	0.471	0.329	0.47	0.512	0.537	0.41	
NCI-H727	0.433	0.45	0.523	0.396	0.724	0.832	0.808	0.926	0.738	0.475	0.733	0.649	0.67	0.538	0.837	0.836	0.857	0.754	0.889	0.454
NCI-H838	1.1	1.23	1.13	0.91	0.768	0.863	0.916	0.884	0.64	0.546	0.769	0.583	0.583	0.511	0.447	0.489	0.476	0.485	0.448	1.28
NCI-H1355	0.841	0.961	0.923	0.983	0.982	1.08	1.25	1.1	1.12	0.441	0.453	0.473	0.482	0.432	0.369	0.381	0.375	0.365	0.345	0.921
NCI-H1437	1.06	1.2	1.13	1.16	0.979	0.959	1.09	0.909	0.899	0.362	0.314	0.321	0.297	0.323	0.566	0.606	0.624	0.514	0.628	1.19
NCI-H1650	1.48	1.18	1.34	1.33	0.821	0.903	1.14	0.991	0.829	0.384	0.492	0.382	0.533	0.371	0.45	0.379	0.315	0.475	0.416	1.4
NCI-H1651	0.922	1.09	1.08	1.15	0.866	0.843	0.89	0.921	0.917	0.289	0.332	0.352	0.353	0.368	0.552	0.633	0.591	0.557	0.523	1.19
NCI-H1666	1.03	0.921	0.836	0.96	1.06	0.978	1.08	1.19	1.07	0.569	0.587	0.55	0.586	0.538	0.905	0.884	0.738	0.698	0.735	1.22
